The text below walks through data of patent US20200237736A1, “METHODS FOR PREVENTING OR TREATING CANCER RESISTANCE TO EGFR INHIBITION” (INSERM (INSTITUT NATIONAL DE LA SANTE ET DE LA RECHERCHE …, priority 2017, published 2020).

The test system of data set [1] is PC9 cells containing the EGFR-T790M mutation. Nature of the data set: CRISPR-barcoding qPCR: fraction of EGFR-T790M barcode in PC9 cells in the presence of gefitinib. The format is cell-based. To be noted: SC-1 20 μM, gefitinib 1 μM, 5 days; FIG. 11A.
Text: (§1) Cells were transfected with a Nucleofector II device (Lonza) using the Amaxa Nucleofector kit (Lonza) and electroporation program recommended by the manufacturer.
(§2) The set of silent mutations is designed to enable PCR specificity and to avoid recognition by the corresponding sgRNA used to cleave the endogenous sequence. […] Immediately after transfection, the cells were pooled in the same flask.
(§3) gDNA was extracted using the NucleoSpin Tissue kit (Macherey-Nagel). To avoid potential amplification from ssODN molecules not integrated in the correct genomic locus, one of the two primers was designed to target the endogenous genomic sequence flanking the region sharing homology with the ssODNs.
as §1, §2

For data set [2], the system named is EGFR-wild type NSCLC cells. Particulars: different cell models, including EGFR-wild type NSCLC cells; Su et al., 2015; Wang et al., 2014; cited from earlier work.
In the next data set the test system is breast cancer cell lines. To be noted: Liu et al. 2013; cited from earlier work.
Data set [3] concerns STAT3 phosphorylation. To be noted: different cell models, including EGFR-wild type NSCLC cells; Su et al., 2015; Wang et al., 2014; cited from earlier work.
Data set [4] has as its system EGFR wild-type NSCLC cell lines. To be noted: Wang et al 2014; cited from earlier work.
The target of the next data set is kinase. Particulars: cited from earlier work.
In the next data set the test system is EGFR. Nature of the data set: Immunoblot, EGFR expression in PC9 cells. In kind it is cell-based. To be noted: 3 days, sorafenib 5 μM or SC-1 20 μM, FIG. 11B.
Data set [5] relates to STAT3 phosphorylation. The data set can be described thus: Immunoblot, STAT3 phosphorylation in PC9 cells. To be noted: for STATS phosphorylation: PC9 cells, 3 days, sorafenib 5 μM or SC-1 20 μM, FIG. 11B. The format is cell-based. The procedure:
(§4) Immunoblot was performed using the indicated antibodies.
FIG. 11: SC-1 prevents resistance of NSCLC cells to EGFR TKI. […] The mean values (±SEM) representative of four independent experiments are represented. (B).
(§5) Cells were washed once with phosphate-buffered saline (PBS) and lysed on ice in a buffer containing 50 mM Hepes pH 7.6, 150 mM NaCl, 5 mM EDTA, 1% Nonidet P-40, 20 mM NAF, 2 mM sodium orthovanadate, supplemented with protease inhibitor mini tablets (Thermo Scientific). Lysates were cleared by centrifugation at 14,000 g during 15 min at 4° C. and protein concentrations were determined by using the Bradford protein assay (Bio-Rad). Sodium dodecyl sulfate (SDS) loading buffer was added to equal amounts of lysate, followed by SDS-polyacrylamide gel electrophoresis (SDS-PAGE) and transfer to polyvinylidene fluoride (PVDF) membrane (Thermo Scientific). Membranes were analyzed by chemiluminescence using a ChemiDoc imaging system (Biorad). All primary antibodies were purchased from Cell Signaling. Secondary antibodies were purchased from Santa Cruz.

The subject of data set [6] is NSCLC. Particulars: treatment of NSCLC; Shepherd et al 2005; cited from earlier work.
Data set [7] deals with EGFR-C797S cells within PC9-(EGFR-T790M) cells. Nature of the data set: Colony forming assay, EGFR-C797S barcoded PC9-(EGFR-T790M) cells. In kind it is cell-based. To be noted: osimertinib 1 μM alone, 14 days; FIG. 3B.
In data set [8] the test system is parental, EGFR-T790M and EGFR-T790M/C797S PC9 cells.
Data set [9] relates to NSCLC. Particulars: first-line treatment; Soria et al. 2018; cited from earlier work.
Data set [10] relates to EGFR-T790M PC9 cells containing the EGFR-C797S CRISPR-barcode. Particulars: mouse, in vivo.
Procedure: From day 39, the mice were treated three times per week. The mean tumor size ±SEM is represented for the different groups (5 mice per group).
The proportions of the barcode in the cells prior to mouse injection was analyzed in parallel and arbitrarily set to 1. (B) For each group, the mean of the values (±SEM) shown in A is represented.
Gefitinib resistant PC9 cells (EGFR-T790M) containing the EGFR-C797 CRISPR-barcodes were mixed with matrigel and subcutaneously inoculated in the left and right flank (2×10^6 cells per site) of male SCID mice. The size of the tumors was measured by caliper every 3-4 days. […] From day 39, the mice were treated three times per week. Tumors from sacrificed mice were dissected, and gDNA was derived using the DNeasy Blood & Tissue Kit (Qiagen).
The subject of data set [11] is EGFR-C797S cells within PC9-(EGFR-T790M) cells. Nature of the data set: CRISPR-barcoding qPCR: EGFR-C797S barcode in PC9-(EGFR-T790M) cells. The format is cell-based. To be noted: osimertinib 1 μM alone, nine days; FIG. 3A.
Text: as §2, §3

The test system of a further data set is MAPK activation. The data set can be described thus: Immunoblot, MAPK activation in PC9 cells. In kind it is cell-based. Particulars: sorafenib 5 μM, 2 or 6 hours; FIG. 4A. As for the experimental part: as §4, §5
The subject of another data set is MYC transcription factor. The data set can be described thus: Immunoblot, MYC expression in PC9 cells. The format is cell-based. Particulars: sorafenib 5 μM, two days; parental and EGFR-T790M PC9 cells; FIG. 4B. As for the experimental part:
as §4, §5

On to `N#Cc1ccc(Oc2ccc(NC(=O)Nc3ccc(Cl)c(C(F)(F)F)c3)cc2)cc1` [SC-1, N-[4-Chloro-3-(trifluoromethyl)phenyl]-N′-[4-(4-cyanophenoxy)phenyl]-urea], for which the “amplification of EGFR-T790M containing cells in the presence of gefitinib (qPCR)” value in data set [1] is given as “could mimic the effects of sorafenib”. The growth inhibition entry in [2] is “growth inhibition”. The apoptosis entry (in the data set with breast cancer cell lines; in data set [4]) was “induces apoptosis” in each case. Further, in the data set on STAT3 phosphorylation [3], the pSTAT3 inhibition result is reported as “pSTAT3 inhibition”. For the same compound, the kinase-inhibition activity result at kinase is listed as “no kinase-inhibition activity”. For the same compound, the EGFR expression result in the data set with EGFR is listed as “down-regulated”. In addition, in the data set with STAT3 phosphorylation [5], the STATS phosphorylation result is “inhibited”.
In the case of `C#Cc1cccc(Nc2ncnc3cc(OCCOC)c(OCCOC)cc23)c1` [erlotinib], the clinical response rate result in the data set on NSCLC [6] is recorded as “about 8.9%”.
For `C=CC(=O)Nc1cc(Nc2nccc(-c3cn(C)c4ccccc34)n2)c(OC)cc1N(C)CCN(C)C` [osimertinib], the “amplification of EGFR-C797S cells (colony forming assay)” value in data set [7] is listed as “induced a strong amplification”. Moreover, in [8], the “cell growth (colony forming assay)” value was “inhibited cell growth”. Moreover, in the data set with NSCLC [9], the “adverse effects compared to first/second generation TKIs” value is reported as “less severe adverse effects” and the “efficacy compared to first/second generation TKIs” value is “superior efficacy”. In addition, in data set [10], the “growth of the tumors / tumor size” value is on record as “initially inhibited, but it eventually resumed after a few weeks”. In data set [11], the “amplification of EGFR-C797S cells (qPCR)” value is on record as “induced a strong amplification”.
`CNC(=O)c1cc(Oc2ccc(NC(=O)Nc3ccc(Cl)c(C(F)(F)F)c3)cc2)ccn1` [sorafenib]: the MAPK activation entry in the data set with MAPK activation is recorded as “no effect”. Also, the “expression of MYC transcription factor” value with MYC transcription factor was “down-regulated”. For the same compound, the STATS phosphorylation entry in the data set on STAT3 phosphorylation [5] is “inhibited”. In the data set on STAT3 phosphorylation [5] (sorafenib 5 μM, 2 or 6 hours, FIG. 4), the STAT3 phosphorylation entry was “rapid inhibition”.
